In patent US9682976B2, “Protein kinase C inhibitors and uses thereof” (Rigel Pharmaceuticals, Inc., priority 2012, dated 2017) one finds EC50 data, which are given here for 23 compounds.

pEC50: −log10 of the molar value.

The first test relates to PKC mediated IL-2 production. Put plainly: IL-2 ELISA, human primary T cell, anti CD3+CD28+. It is filed as cell-based. Particulars: Homo sapiens, T-cell, 24 h, human primary T cells stimulated with αCD3 and αCD28, 24 hours. Put shortly:
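Human peripheral blood T cells, pre-expanded with αCD3/αCD28 and IL-2 and then washed free of IL-2, were pre-incubated with compound for 1 h at 37° C. They were then stimulated on plates coated with […] αCD3 and 5 μg/ml αCD28, or with 0.5 ng/ml PMA plus 0.1 uM ionomycin in the counter assay. IL-2 in supernatants was measured by ELISA after 24 h.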
One may read the pEC50 as the negative decadic logarithm of the EC50, by convention in mol/L. A high value points to a low EC50. Consider `CC(O)COc1ccc(Nc2ncc(Cl)c(N[C@@H]3C[C@@H]4CCCN4C(C)(C)C3)n2)cc1C#N` (stereo partly drawn) [Compound 229, 5-((5-chloro-4-(((7R,8aS)-5,5-dimethyloctahydroindolizin-7-yl)amino)pyrimidin-2-yl)amino)-2-(2-hydroxypropoxy)benzonitrile], for which the pEC50 is 5.00 to 6.00.

For the compound `Cn1nnn(-c2cc(Nc3ncc(F)c(N[C@@H]4C[C@@H]5CCCN5C(C)(C)C4)n3)c(F)cc2OCC(O)C(F)(F)F)c1=O` (stereo partly drawn) [Compound 230, 1-(5-((4-(((7R,8aS)-5,5-dimethyloctahydroindolizin-7-yl)amino)-5-fluoropyrimidin-2-yl)amino)-4-fluoro-2-(3,3,3-trifluoro-2-hydroxypropoxy)phenyl)-4-methyl-1,4-dihydro-5H-tetrazol-5-one], the pEC50 is 6.30 to 7.00. The same measure, in the same setting: then `Cn1nnn(-c2cc(Nc3ncc(Cl)c(N[C@@H]4C[C@@H]5CCCN5C(C)(C)C4)n3)c(F)cc2O)c1=O` [Compound 232, 1-(5-((5-chloro-4-(((7R,8aS)-5,5-dimethyloctahydroindolizin-7-yl)amino)pyrimidin-2-yl)amino)-4-fluoro-2-hydroxyphenyl)-4-methyl-1,4-dihydro-5H-tetrazol-5-one], with 6.00 to 6.30. Compound `CO[C@@H](C)COc1cc(F)c(Nc2ncc(F)c(N[C@@H]3C[C@@H]4CCCN4C(C)(C)C3)n2)cc1-n1nnn(C)c1=O` [Compound 233, 1-(5-((4-(((7R,8aS)-5,5-dimethyloctahydroindolizin-7-yl)amino)-5-fluoropyrimidin-2-yl)amino)-4-fluoro-2-((S)-2-methoxypropoxy)phenyl)-4-methyl-1,4-dihydro-5H-tetrazol-5-one] gave a pEC50 of 6.30 to 7.00. `CO[C@@H](C)COc1cc(F)c(Nc2ncc(F)c(N(C[C@H](C)OC)[C@@H]3C[C@@H]4CCCN4C(C)(C)C3)n2)cc1-n1nnn(C)c1=O` [Compound 234, 1-(5-((4-(((7R,8aS)-5,5-dimethyloctahydroindolizin-7-yl)((S)-2-methoxypropyl)amino)-5-fluoropyrimidin-2-yl)amino)-4-fluoro-2-((S)-2-methoxypropoxy)phenyl)-4-methyl-1,4-dihydro-5H-tetrazol-5-one] gave a pEC50 of less than 5.00. On the same count and under the same terms, then `C[C@H](O)COc1cc(F)c(Nc2ncc(Cl)c(N[C@@H]3C[C@@H]4CCCN4C(C)(C)C3)n2)cc1-n1nnn(C)c1=O` [Compound 235, 1-(5-((5-chloro-4-(((7R,8aS)-5,5-dimethyloctahydroindolizin-7-yl)amino)pyrimidin-2-yl)amino)-4-fluoro-2-((S)-2-hydroxypropoxy)phenyl)-4-methyl-1,4-dihydro-5H-tetrazol-5-one], with more than 7.00.

In turn, `CC(O)COc1cc(F)c(Nc2ncc(Cl)c(N[C@@H]3C[C@@H]4CCCN4C(C)(C)C3)n2)cc1-n1nnn(C)c1=O` (stereo partly drawn) [Compound 236, 1-(5-((5-chloro-4-(((7R,8aS)-5,5-dimethyloctahydroindolizin-7-yl)amino)pyrimidin-2-yl)amino)-4-fluoro-2-(2-hydroxypropoxy)phenyl)-4-methyl-1,4-dihydro-5H-tetrazol-5-one] gave a pEC50 of more than 7.00. Same read-out and setting: to `Cn1nnn(-c2cc(Nc3ncc(Cl)c(N[C@@H]4C[C@@H]5CCCN5C(C)(C)C4)n3)c(F)cc2OCCO)c1=O` [Compound 237, 1-(5-((5-chloro-4-(((7R,8aS)-5,5-dimethyloctahydroindolizin-7-yl)amino)pyrimidin-2-yl)amino)-4-fluoro-2-(2-hydroxyethoxy)phenyl)-4-methyl-1,4-dihydro-5H-tetrazol-5-one] belongs more than 7.00; to `CO[C@@H](C)COc1cc(F)c(Nc2ncc(Cl)c(N[C@@H]3C[C@@H]4CCCN4C(C)(C)C3)n2)cc1-n1nnn(C)c1=O` [Compound 238, 1-(5-((5-chloro-4-(((7R,8aS)-5,5-dimethyloctahydroindolizin-7-yl)amino)pyrimidin-2-yl)amino)-4-fluoro-2-((S)-2-methoxypropoxy)phenyl)-4-methyl-1,4-dihydro-5H-tetrazol-5-one], 6.00 to 6.30. With `CO[C@@H](C)COc1cc(F)c(Nc2ncc(Cl)c(N(C[C@H](C)OC)[C@@H]3C[C@@H]4CCCN4C(C)(C)C3)n2)cc1-n1nnn(C)c1=O` [Compound 239, 1-(5-((5-chloro-4-(((7R,8aS)-5,5-dimethyloctahydroindolizin-7-yl)((S)-2-methoxypropyl)amino)pyrimidin-2-yl)amino)-4-fluoro-2-((S)-2-methoxypropoxy)phenyl)-4-methyl-1,4-dihydro-5H-tetrazol-5-one], the pEC50 is less than 5.00. On to `Cn1nnn(-c2cc(Nc3ncc(Cl)c(N[C@@H]4C[C@@H]5CCCN5C(C)(C)C4)n3)c(F)cc2OCC(C)(C)O)c1=O` [Compound 240, 1-(5-((5-chloro-4-(((7R,8aS)-5,5-dimethyloctahydroindolizin-7-yl)amino)pyrimidin-2-yl)amino)-4-fluoro-2-(2-hydroxy-2-methylpropoxy)phenyl)-4-methyl-1,4-dihydro-5H-tetrazol-5-one], for which the pEC50 was more than 7.00. In turn, `COc1cc(Nc2ncc(F)c(N[C@@H]3C[C@@H]4CCCN4C(C)(C)C3)n2)c(F)c(-n2nnnc2C)c1` [Compound 241, 5-fluoro-N2-(2-fluoro-5-methoxy-3-(5-methyl-1H-tetrazol-1-yl)phenyl)-N4-((7R,8aS)-octahydro-5,5-dimethylindolizin-7-yl)pyrimidine-2,4-diamine] had a pEC50 of 6.30 to 7.00. Compound `COc1cc(-n2nnnc2C)cc(Nc2ncc(F)c(N[C@@H]3C[C@@H]4CCCN4C(C)(C)C3)n2)c1F` [Compound 242, 5-fluoro-N2-(2-fluoro-3-methoxy-5-(5-methyl-1H-tetrazol-1-yl)phenyl)-N4-((7R,8aS)-octahydro-5,5-dimethylindolizin-7-yl)pyrimidine-2,4-diamine] showed a pEC50 of more than 7.00.

`COc1cc(-n2nnnc2C)c(F)c(Nc2ncc(F)c(N[C@@H]3C[C@@H]4CCCN4C(C)(C)C3)n2)c1F` [Compound 243, 5-fluoro-N2-(2,6-difluoro-3-methoxy-5-(5-methyl-1H-tetrazol-1-yl)phenyl)-N4-((7R,8aS)-octahydro-5,5-dimethylindolizin-7-yl)pyrimidine-2,4-diamine]: the pEC50 is 6.00 to 6.30. In turn, `Cn1nc2n(c1=O)-c1cc(Nc3ncc(F)c(N[C@@H]4C[C@@H]5CCCN5C(C)(C)C4)n3)ccc1OC2(C)C` [Compound 248, 5-fluoro-N2-(1H-2,4-dihydron-2,4,4-trimethyl-[1,2,4]triazolo[3,4-c][1,4]benzoxazin-1-one-8-yl)-N4-((7R,8aS)-octahydro-5,5-dimethylindolizin-7-yl)pyrimidine-2,4-diamine] gave a negative logarithm of the EC50 (pEC50) of 6.30 to 7.00. As to `Cc1nnnn1-c1cc(Nc2ncc(F)c(N[C@@H]3C[C@@H]4CCCN4C(C)(C)C3)n2)c(F)cc1OC1COC1` [Compound 249, 5-fluoro-N2-(2-fluoro-5-(5-methyl-1H-tetrazol-1-yl)-4-(oxetan-3-yloxy)phenyl)-N4-((7R,8aS)-octahydro-5,5-dimethylindolizin-7-yl)pyrimidine-2,4-diamine], the pEC50 was more than 7.00. `CC1(C)Oc2ccc(Nc3ncc(F)c(N[C@@H]4C[C@@H]5CCCN5C(C)(C)C4)n3)cc2-n2c1nn(C(CO)CCl)c2=O` (stereo partly drawn) [Compound 250, 5-fluoro-N2-(1H-2,4-dihydron-4,4-dimethyl-2-(3-chloropropanol-2-yl)[1,2,4]triazolo[3,4-c][1,4]benzoxazin-1-one-8-yl)-N4-((7R,8aS)-octahydro-5,5-dimethylindolizin-7-yl)pyrimidine-2,4-diamine] had a pEC50 of 5.00 to 6.00. `CC1(C)Oc2ccc(Nc3ncc(F)c(N[C@@H]4C[C@@H]5CCCN5C(C)(C)C4)n3)cc2-n2c1nn(C1COC1)c2=O` [Compound 251, 5-fluoro-N2-(1H-2,4-dihydron-4,4-dimethyl-2-(oxetan-3-yl)[1,2,4]triazolo[3,4-c][1,4]benzoxazin-1-one-8-yl)-N4-((7R,8aS)-octahydro-5,5-dimethylindolizin-7-yl)pyrimidine-2,4-diamine] showed a pEC50 of 5.00 to 6.00. On the same count and under the same terms, to `Cc1nnnn1-c1cc(Nc2ncc(F)c(N[C@@H]3C[C@@H]4CCCN4C(C)(C)C3)n2)c(F)cc1O` [Compound 252, 4-(4-((7R,8aS)-octahydro-5,5-dimethylindolizin-7-ylamino)-5-fluoropyrimidin-2-ylamino)-5-fluoro-2-(5-methyl-1H-tetrazol-1-yl)phenol] belongs 5.00 to 6.00; to `CNc1nc2cc(Nc3ncc(F)c(N[C@@H]4C[C@@H]5CCCN5C(C)(C)C4)n3)c(F)cc2o1` [Compound 253, N5-(4-((7R,8aS)-octahydro-5,5-dimethylindolizin-7-ylamino)-5-fluoropyrimidin-2-yl)-6-fluoro-N2-methylbenzo[d]oxazole-2,5-diamine], 5.00 to 6.00. In turn, `CC1(C)C[C@H](Nc2nc(Nc3cc(-n4nnnc4C4CC4)c(OC4COC4)cc3F)ncc2F)C[C@@H]2CCCN21` [Compound 255, N2-(5-(5-cyclopropyl-1H-tetrazol-1-yl)-2-fluoro-4-(oxetan-3-yloxy)phenyl)-5-fluoro-N4-((7R,8aS)-octahydro-5,5-dimethylindolizin-7-yl)pyrimidine-2,4-diamine] gave a pEC50 of more than 7.00.

The same test, now with this note: human primary T cells stimulated with αCD3 and αCD28, 24 hours.
`Cn1nnn(-c2cc(Nc3ncc(F)c(N[C@@H]4C[C@@H]5CCCN5C(C)(C)C4)n3)c(F)cc2OCCN)c1=O` [Compound 228, 1-(2-(2-aminoethoxy)-5-((4-(((7R,8aS)-5,5-dimethyloctahydroindolizin-7-yl)amino)-5-fluoropyrimidin-2-yl)amino)-4-fluorophenyl)-4-methyl-1,4-dihydro-5H-tetrazol-5-one] showed a pEC50 of 6.30 to 7.00. On the same count and under the same terms, then `Cn1nnn(-c2cc(Nc3ncc(F)c(N[C@@H]4C[C@@H]5CCCN5C(C)(C)C4)n3)c(F)cc2OCCN)c1=O` [Compound 231, 1-(2-(2-aminoethoxy)-5-((4-(((7R,8aS)-5,5-dimethyloctahydroindolizin-7-yl)amino)-5-fluoropyrimidin-2-yl)amino)-4-fluorophenyl)-4-methyl-1,4-dihydro-5H-tetrazol-5-one], with 6.00 to 6.30.
